Assay results as given in patent publication US4239709A, “Process for preparing optically active oxazaphosphorins” (Otsuka Pharmaceutical Co., Ltd., priority 1978, dated 1980).
Where two headings read alike, the source gives them in different places.

Columns and labels:
[1] = tested on: Lymphoid leukemia L-1210 solid-type tumor; experiment: L1210 Tumor test (solid-type tumor, subcutaneous, inhibition of tumor proliferation by tumor weight); type: in vivo, BDF1 male mice; settings: for ED50 / ED90: Mus musculus; for ED50 / ED90 / ID50 / ID90: L1210 tumor; for ED50: read-out: ID50 (the source's name); for ED90: read-out: ID90 (the source's name)
Method: (§1) Lymphoid leukemia L-1210 solid-type tumor was transplanted (1×10^6 cells) in subcutis on the back of BDF1 male mice having the body weight of about 22 g. The mice were killed 10-11 days after the transplantation and the inhibitory effect of tumor proliferation was evaluated by measuring the weight of tumor.
(§2) Each of 5, 10, 20, 50, 100 mg of compounds to be tested is dissolved in a phisiological NaCl solution (5 mg/kg of concentration) and administered by intraperitoneal injection (I.P.) or orally (P.O.). As to the reference the phisiological NaCl solution (5 mg/kg of concentration) was used.

[2] = tested on: Lymphocytic leukemia P388 tumor; experiment: P388 tumor test (Table 2, headed P328 Tumor test); type: in vivo, BDF1 male mice; settings: for ED50 / ED90: Mus musculus, P388, ip; for ED50: read-out: ID50 (the source's name); for ED90: read-out: ID90 (the source's name)
Method: Lymphocytic leukemia P388 liquid-type tumor was transplanted (1×10^6 cells) in abdominal cavity of BDF1 male mice having the body weight of about 20 g. The effect was evaluated by a method of ILS (Increase in life span).
as §1, with “Similarly lymphocytic” for “Lymphoid”, “P388” for “L-1210”, “15 to 16” for “10-11”
as §2

[3] = Acute toxicity test (LD50); type: in vivo, ICR male mice; settings: for LD50: ICR male mice, I.P.
Text: LD50 (mg/kg) values (ICR male mice, I.P.) of R-(+)-cyclophosphamide, S-(-)-cyclophosphamide and racemic form of cyclophosphamide are shown below.

[4] = tested on: Lymphoid leukemia L-1210 solid-type tumor; experiment: L1210 Tumor test (solid-type tumor, subcutaneous, inhibition of tumor proliferation by tumor weight); type: in vivo, BDF1 male mice; settings: Mus musculus, L1210, sc, I.O. (so in the source)
PC6-Tumor = settings: compared with R-(+)-cyclophosphamide and racemic form; Cox et al. 1976; cited from earlier work
[5] = compared with R-(+)-cyclophosphamide; Cox et al. 1976; cited from earlier work
[6] = P328 Tumor test (so in the source), I.P.
[7] = mouse, in vivo, ip, read-out: LD50

Work on `O=P1(N(CCCl)CCCl)NCCCO1` (racemic) [Racemic form of cyclophosphamide, cyclophosphamide] yielded an ED50 ([1]; L1210, po, P.O.) of 28 mg/kg, an ED90 ([1]; L1210, po, P.O.) of 90 mg/kg and an ED50 [2, 6] of 12.9 mg/kg. The ED90 [2, 6] was 39.7 mg/kg, the LD50 [3, 7] was 440 mg/kg and the ED50 ([4]; read-out: ID50 (the source's name)) was 33 mg/kg. For the same molecule, the ED90 ([4]; read-out: ID90 (the source's name)) was 107 mg/kg.
Work on `O=P1(N(CCCl)CCCl)NCCCO1` (single isomer, unassigned) [R-(+)-cyclophosphamide] yielded an ED50 ([1]; L1210, ip, I.P.) of 32 mg/kg, an ED90 ([1]; L1210, ip, I.P.) of 104 mg/kg and an ED50 ([1]; L1210, po, P.O.) of 24 mg/kg. The ED90 ([1]; L1210, po, P.O.) was 76 mg/kg, the “anti-tumor effect against L 1210-Tumor” value ([1]; compared with S-(-)-cyclophosphamide and racemic form) was “better anti-tumor effect than those of shown by S-(-)-cyclophosphamide and racemic form of cyclophosphamide” and the ED50 [2, 6] was 24.3 mg/kg. For the same molecule, the ED90 [2, 6] was 50.8 mg/kg, the acute toxicity ([3]; in mice, compared with S-(-)-cyclophosphamide and racemic form) was “lower acute toxicity (in mice) than those shown by S-(-)-cyclophosphamide and racemic form of cyclophosphamide” and the LD50 [3, 7] was 550 mg/kg.
Molecule `O=P1(N(CCCl)CCCl)NCCCO1` (single isomer, unassigned) [S-(-)-cyclophosphamide] has an ID50 ([1]; I.P.) of 44 mg/kg, an ID90 ([1]; I.P.) of 143 mg/kg and an ID50 ([1]; P.O.) of 29 mg/kg. For the same molecule, the ID90 ([1]; P.O.) was 95 mg/kg, the ID50 [2, 6] was 14.6 mg/kg and the ID90 [2, 6] was 26.3 mg/kg. For the same molecule, the “anti-tumor effect against P388-Tumor” value ([2]; compared with R-(+)-cyclophosphamide and racemic form) was “better than those of R-(+)-cyclophosphamide and racemic form of cyclophosphamide”, the LD50 [3] was 330 mg/kg and the “anti-tumor effect against PC6-Tumor” value (PC6-Tumor) was “better than those of R-(+)-cyclophosphamide and racemic form of cyclophosphamide”. The pharmacological activities [5] was “excellent pharmacological activities as compared with R-(+)-cyclophosphamide”.
